Patent publication US20060135500A1, “Novel oral pharmaceutical suspension of cefdinir crystal” (Astellas Pharma Inc., priority 2004, published 2006)

How the values were obtained:
Format in all cases: physicochemical
[1] = Dispersibility comparison assay, Method 2 (change of transmittance at 650 nm); conditions: 5 mg in 10 mL of water (0.5 mg/mL)
Procedure: The dispersibility of two crystal forms of Cefdinir was compared by evaluating sedimentation rates of two crystal forms. The evaluating sedimentation rate was conducted by using two methods as follow.
5 mg of crystal form A or the monohydrate were dispersed in 10 mL of water (sample concentration: 0.5 mg/mL), and the suspensions were vigorously shaken. Then, the dispersed suspensions were transferred in the cell for UV measurement, and changes of the transmittances at 650 nm were measured.

[2] = Solvent medium transformation (suspension in water or ethanol, PXRD of residual solid); conditions: water or ethanol (99.5), room temperature
Procedure: Form A and the monohydrate were suspended in water or ethanol (99.5) at room temperature, and the powder X-ray diffraction (PXRD) patterns of the residual solid materials were measured (Bruker AXS D8 Discover with GADDS).

[3] = Dispersibility comparison assay, Method 1 (visual observation of suspension in test tube); conditions: summary statement
Procedure: The dispersibility of two crystal forms of Cefdinir was compared by evaluating sedimentation rates of two crystal forms. The evaluating sedimentation rate was conducted by using two methods as follow. About 1250 mg of crystal form A or the monohydrate were dispersed in 50 mL of water (125 mg/5 mL), and the suspensions were vigorously shaken by hand. […] The pictures of suspension states were taken with time.

Structure (SMILES)	change of transmittance of suspension at 650 nm [1]	crystalline conversion in aqueous and ethanol suspensions (PXRD of residual solid) [2]	dispersibility in aqueous solvent [3]	sedimentation rate in aqueous solvent [3]
C=CC1=C(C(=O)O)N2C(=O)C(NC(=O)C(=NO)c3csc(N)n3)[C@H]2SC1 (single isomer, unassigned) [form A, 7-[2-(2-aminothiazol-4-yl)-2-hydroxyiminoacetamido]-3-vinyl-3-cephem-4-carboxyl ic acid (syn isomer)]	faster increase than that of the monohydrate	no crystalline conversion to other crystal form	–	–
C=CC1=C(C(=O)O)N2C(=O)C(NC(=O)C(=NO)c3csc(N)n3)[C@H]2SC1 (single isomer, unassigned) [crystal form C, 7-[2-(2-aminothiazol-4-yl)-2-hydroxyiminoacetamido]-3-vinyl-3-cephem-4-carboxyl ic acid (syn isomer)]	–	–	higher than that of crystal form A	lower than that of crystal form A
